Laboratory results from US8420638B2, “Triheterocyclic compounds and compositions thereof” (Gemin X Pharmaceuticals Canada Inc., priority 2003, dated 2013).
Where a name gives a salt, the structure may show the parent alone.

Legend:
[1] = Solubility (0.2 μM filtration, LC/MS); assay type: physicochemical
Description: To determine whether a compound is soluble in a solution, the solution was filtered on 0.2 μM polytetrafluoroethylene filters (Whatman Inc. Clifton, N.J., USA) and the compound concentration in the filtrate was measured by LC/MS and compared to the expected concentration.
The column used was XTerra MS C18: 50×2.1 mm, 3.5 mm column at 20° C. Samples were injected and separated under the following conditions: The mobile phase “A” consisted of 5 mM ammonium formate, 0.1% formic acid in water and mobile phase “B” consisted of 5 mM ammonium formate, 0.1% formic acid in methanol. […] The Mass Spectrometer system consisted of a Waters ZQ2000 single quadrupole mass spectrometer (Waters, Milford, Mass., USA) equipped with an Electrospray Ionization Source (ES). The mass detector was operated in positive ion mode (ES+) and Selected Ion Recording mode (SIR). Compounds were detected at m/z equal to their respective molecular weight plus 1.

[2] = target: T1, human placental alkaline phosphatase (Homo sapiens, UniProt P05187); assay: Conversion of phosphate pro-drug by human placental alkaline phosphatase in vitro; assay type: in vitro ADME; settings: 15 μM, 0.02 U/100 μL enzyme, pH 7.4, 30-120 minutes; FIG. 4
T1 construct: purchased Sigma-Aldrich Canada Ltd
T1 sequence (P05187 23-506): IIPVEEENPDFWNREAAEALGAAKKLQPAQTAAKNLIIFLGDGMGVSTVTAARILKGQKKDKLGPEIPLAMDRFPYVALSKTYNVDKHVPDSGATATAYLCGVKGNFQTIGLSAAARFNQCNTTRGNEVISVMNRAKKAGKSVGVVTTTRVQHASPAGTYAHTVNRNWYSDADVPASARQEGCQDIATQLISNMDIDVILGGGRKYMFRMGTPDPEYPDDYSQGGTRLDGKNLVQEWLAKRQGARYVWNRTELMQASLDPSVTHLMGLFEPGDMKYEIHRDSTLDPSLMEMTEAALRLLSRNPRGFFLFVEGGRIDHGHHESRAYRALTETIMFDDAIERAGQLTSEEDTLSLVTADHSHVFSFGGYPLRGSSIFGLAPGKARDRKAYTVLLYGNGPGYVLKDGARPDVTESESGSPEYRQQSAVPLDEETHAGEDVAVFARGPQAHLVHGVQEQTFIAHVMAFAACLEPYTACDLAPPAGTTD
Description: (§1) The conversion into biologically active drug of phosphate pro-drugs by calf intestinal alkaline phosphatase and human placental alkaline phosphatase was measured in vitro using purified enzymes. Purified calf intestinal alkaline phosphatase (Roche Diagnostic Inc. Laval, Quebec, Canada) or human placental alkaline phosphatase (Sigma-Aldrich Canada Ltd. Oakville, Ontario, Canada) was added at a concentration of 0.02 U/100 μL to a solution containing 15 μM of Compound 66, 20 mM Tris-HCl, pH 7.4 and 0.9% NaCl. The solutions were incubated for 30, 60 or 120 minutes. A solution containing 15 μM of Compound 66, 20 mM Tris-HCl, pH 7.4 and 0.9% NaCl was used as a reference (time=0 minutes). To each solution, an equal volume (100 μL) of ice-cold acetonitrile was added, and then the mixture was vortexed and transferred to glass vials. A standard concentration curve of the pro-drug and the drug was prepared in 10 mM Tris-HCl, pH 7.4, 0.45% NaCl and 50% acetonitrile. All samples were immediately analyzed by LC/MS.

[3] = system: calf intestinal alkaline phosphatase; assay: Conversion of phosphate pro-drug by calf intestinal alkaline phosphatase in vitro; assay type: in vitro ADME; settings: 15 μM, 0.02 U/100 μL enzyme, pH 7.4, 30-120 minutes; FIG. 5
Description: as §1

[4] = system: human prostatic adenocarcinoma cancer PC3 cells; assay: Growth of PC3 prostatic tumors in SCID mice; assay type: in vivo; settings: 5 consecutive intravenous injections; 4.84 μMoles/Kg (Compound 1 Mesylate Salt), 4.84 or 14.51 μMoles/Kg (Compound 66); FIG. 6
Description: The human prostatic adenocarcinoma cancer PC3 cells were purchased from the American Type Culture Collection (ATCC). These cells were confirmed to be free of mycoplasma infection. Cells were maintained in the Roswell Park Memorial Institute (RPMI), supplemented with 10% inactivated fetal bovine serum and 1% penicillin-streptomycin-L-Glutamine, under 5% carbon dioxide (CO2) at 37° C. For prostatic-tumor induction, cells were grown lower than 70% confluence in complete medium and then collected with trypsin (Bio Whittaker, Rockland, Me., USA). Cells were then centrifuged and washed 2 times in phosphate buffer solution (PBS) and resuspended in PBS at 1.5×10^6 cells/0.1 mL. PC3 cells were then transplanted subcutaneously into the flank of SCID mice (Charles River Laboratories, Wilmington, Mass., USA), as a suspension of tumor cells (1.5×10^6 cells in 100 μL PBS), under a laminar airflow hood. Eleven (11) days later, the size of each tumor was measured. […] Relative tumor size and volume was calculated as follows: length (cm)×[width (cm)]^2/2. […]

[5] = Shelf stability (precipitation) of the formulated compound; assay type: physicochemical; settings: 0.6 mg/mL in 9.6% polyethylene glycol 300, 0.4% polysorbate 20 and 5% dextrose
Description: Compound 1 Tartrate salt solubility is equal to 0.1 mg/mL. […] This increase in solubility has a positive impact on the shelf stability of formulated Compound 1.

[6] = system: C33A human cervical cancer cells; assay: Growth of C33A cervical tumors in SCID mice; assay type: in vivo, CB17 SCID/SCID mice
Description: (§2) There were three treatment groups of ten mice each: (a) a negative control group, (b) a positive control group and (c) a group treated with Compound 1 Tartrate.
(§3) Treatments started on day fourteen after C33A cells transplantation. Compound 1 Tartrate was administered IV once daily for five consecutive days at a dose of 4.5 mg/kg. Compound 1 Tartrate was prepared fresh daily in a vehicle solution of 5% Dextrose (Abbot Laboratories, QC, Canada) and 2% polysorbate 20 (Sigma, St. Louis, Mo., USA). The negative control group was treated with vehicle alone. The injection volume for both Compound 1 Tartrate group and the negative control group was 150 μl.
(§4) Observation continued for 40 days after initial tumor implantation.

[7] = system: cancer cell lines H1299 and C33A; normal cell lines HMEC and MRC-5; assay: ATP levels in cancer versus normal cell lines (FIG. 1); assay type: cell-based; settings: 72 hours after treatment with 0.5 μM
Description: One day after plating, the cells were treated with various concentrations of Compound 1 Tartrate. Stock solutions of the Compound 1 Tartrate were prepared in dimethyl sulfoxide (Sigma-Aldrich Inc., St. Louis, Mo., USA), diluted in the recommended media and then added to the cells. The total dimethyl sulfoxide on the cells was 1%. […] The results were plotted relative to untreated control cells, which were set at a value of 100.

[8] = Body weight and deaths of tumor-bearing SCID mice under treatment; assay type: in vivo, CB17 SCID/SCID mice; settings: for change in body weight: 4.5 mg/kg IV once daily for five days, FIG. 2
Description: as §2, §3, §4

In the case of COC1=CC(c2cc3ccccc3[nH]2)=N/C1=C\c1[nH]c(C)cc1C [Compound 1], the “solubility in water (in words)” value ([1]; water) is reported as “poorly soluble in water”.

With COC1=CC(c2cc3ccccc3n2C(=O)CC(C)(C)c2c(C)cccc2OP(=O)(O)O)=N/C1=C/c1[nH]c(C)cc1C [Compound 66] the “conversion of pro-drug into Compound 1” value [2] was “convert a fraction of the pro-drug Compound 66 present in solution into the drug Compound 1 within two hours”, the “conversion of pro-drug into Compound 1” value [3] was “convert a fraction of the pro-drug Compound 66 present in solution into the drug Compound 1 within two hours” and the “growth of prostatic tumors” value [4] was “significantly reduce the growth of prostatic tumors in mice”.

In the case of COC1=CC(c2cc3ccccc3[nH]2)=N/C1=C\c1[nH]c(C)cc1C [Compound 1 Mesylate Salt], the “precipitation of the formulation” value [5] is reported as “shows no evidence of precipitation 72 hours after its preparation” and the “growth of prostatic tumors” value [4] is reported as “significantly reduce the growth of prostatic tumors in mice”.

With COC1=CC(c2cc3ccccc3[nH]2)=N/C1=C\c1[nH]c(C)cc1C [Compound 1 tartrate] the solubility ([1]; water (stated for Compound 66), filtrate of 0.2 μM filter by LC/MS, listed as Compound 1 Tartrate salt) was 100 µg/mL, the “reduction in tumor growth compared to vehicle” value ([6]; 4.5 mg/kg IV once a day for five days, FIG. 3) was “statistically significant (p<0.0001) reduction in tumor growth” and the “average tumor size compared to vehicle” value ([6]; days 36 and 39, 4.5 mg/kg) was “significantly (p<0.001) smaller tumors on average”. For the same compound, the “effect on ATP levels in cancer cells versus normal cells” value [7] was “significantly more effective at lowering ATP levels in the cancer cell lines H1299 and C33A compared with the ATP levels in normal cell lines HMEC and MRC-5”, the “precipitation of the formulation” value ([5]; listed as Compound 1 Tartrate Salt) was “tends to precipitate one hour after its preparation” and the “change in body weight” value [8] was “no significant changes in body weight”. For the same compound, the “change in body weight” value ([8]; listed as Compound 1 Tartrate) was “non-significant weight loss”.

For N.N.[Cl][Pt][Cl] [cisplatin], the “deaths in the group” value ([8]; days 29 and 32, 4 mg/kg IP, group of ten mice) was “Two mice died”, the “body weight lost by the mouse that died” value ([8]; mouse that died on day 29, 4 mg/kg IP) was 2.2 g and the “body weight lost by the mouse that died” value ([8]; mouse that died on day 32, 4 mg/kg IP) was 7 g.
